In US12590062B2, “PD-1/PD-L1 inhibitors” (Gilead Sciences, Inc., priority 2017, dated 2026):

Biological target: T1, PD-1/PD-L1 interaction (Homo sapiens, UniProt Q9NZQ7)
T1 construct: expressed in transfected cells; host or cells: CHO cells (aAPC-PD-L1) co-cultured with Jurkat cells overexpressing PD-1 and an NFAT-luciferase reporter
Assay: PD-1/PD-L1 NFAT reporter co-culture assay
Assay type: cell-based
Conditions: Jurkat PD-1 NFAT-luciferase cells co-cultured with aAPC-PD-L1 CHO cells, 6 hrs at 37° C.; read-out: EC50 NFAT Luciferase
Description: PD-1/PD-L1 NEAT Reporter Assay:
Compounds were tested in afunctional co-culture reporter assay in which TCR-mediated NFAT activity is inhibited by the engagement of PD-1 with PD-L1. […] CHO cells expressing surface-bound anti-CD3 antibodies and PD-L1 (artificial antigen presenting cells, aAPC-PD-L1) were first seeded overnight. Jurkat cells overexpressing PD-1 and expressing a luciferase construct under NFAT control are diluted in RPMI assay medium (RPMI 1640 with 2% FBS), mixed with compounds, and immediately seeded on the monolayer of aAPC-PD-L1. The co-culture is then incubated for 6 hrs at 37° C. Luciferase activity is assessed by adding the ONE-Glo reagent and measuring luminescence with a plate reader. EC50 values are calculated from the fit of the dose-response curves to a four-parameter equation (Table 3).

T1 sequence (Q9NZQ7 19-290): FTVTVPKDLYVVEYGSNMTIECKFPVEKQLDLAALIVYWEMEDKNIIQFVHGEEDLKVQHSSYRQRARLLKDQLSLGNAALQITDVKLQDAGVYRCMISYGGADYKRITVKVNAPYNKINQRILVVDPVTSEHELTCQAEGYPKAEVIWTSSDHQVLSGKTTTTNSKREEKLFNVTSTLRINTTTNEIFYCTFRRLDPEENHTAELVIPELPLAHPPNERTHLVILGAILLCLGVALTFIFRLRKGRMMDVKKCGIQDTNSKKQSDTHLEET

Row | Compound | EC50
1 | C=CCOC(=O)[C@H]1CCN[C@H]1c1cc(Cl)c(OCc2cccc(-c3cccc(COc4nc(OC)c([C@@H]5NCC[C@@H]5C(=O)O)cc4Cl)c3C)c2C)nc1OC [Example 105, (2R,3S)-2-(6-((3′-(((5-((2R,3S)-3-((allyloxy)carbonyl)pyrrolidin-2-yl)-3-chloro-6-methoxypyridin-2-yl)oxy)methyl)-2,2′-dimethyl-[1,1′-biphenyl]-3-yl)methoxy)-5-chloro-2-methoxypyridin-3-yl)pyrrolidine-3-carboxylic acid] | ≥ 50000 nM
2 | Cc1c(-c2ccc(OCCNC[C@H](O)CC(=O)O)cc2)cccc1-c1cccc(-c2ccc(OCCNC[C@H](O)CC(=O)O)cc2)c1C [Example 107, (3R,3′R)-4,4′-((((2′,2″-dimethyl-[1,1′:3′,1″:3″,1′″-quaterphenyl]-4,4′″-diyl)bis(oxy))bis(ethane-2,1-diyl))bis(azanediyl))bis(3-hydroxybutanoic acid)] | 35000 nM
3 | Cc1c(COc2cc(OCc3cncc(C#N)c3)c(CNC[C@@H](O)CC(=O)O)cc2Cl)cccc1-c1ccc2c(c1)OC(CNC[C@@H](O)CC(=O)O)CO2 (stereo partly drawn) [Example 108, (3S)-4-((4-((3-(3-((((S)-3-carboxy-2-hydroxypropyl)amino)methyl)-2,3-dihydrobenzo[b] [1,4]dioxin-6-yl)-2-methylbenzyl)oxy)-5-chloro-2-((5-cyanopyridin-3-yl)methoxy)benzyl)amino)-3-hydroxybutanoic acid] | 13900 nM
4 | COc1nc(OCc2cccc(-c3cccc(COc4nc(OC)c(CN[C@@H](CCC(N)=O)C(=O)O)cc4Br)c3C)c2C)c(Br)cc1CN[C@@H](CCC(N)=O)C(=O)O [Example 115, (2S,2′S)-2,2′-((((((2,2′-dimethyl-[1,1′-biphenyl]-3,3′-diyl)bis(methylene))bis(oxy))bis(5-bromo-2-methoxypyridine-6,3-diyl))bis(methylene))bis(azanediyl))bis(5-amino-5-oxopentanoic acid)] | ≥ 50000 nM
5 | Cc1c(COc2nc(OCc3cc(C#N)cc(C#N)c3)c(CNCC(=O)O)cc2Cl)cccc1-c1cccc(COc2nc(OCc3cc(C#N)cc(C#N)c3)c(CNCC(=O)O)cc2Cl)c1C [Example 125, 2,2′-((((((2,2′-dimethyl-[1,1′-biphenyl]-3,3′-diyl)bis(methylene))bis(oxy))bis(5-chloro-2-((3,5-dicyanobenzyl)oxy)pyridine-6,3-diyl))bis(methylene))bis(azanediyl))diacetic acid] | 158 nM
6 | Cc1c(COc2nc(OCCc3cc(C#N)ccn3)c(CNC[C@@H](O)CC(=O)O)cc2Br)cccc1-c1cccc(COc2nc(OCCc3cc(C#N)ccn3)c(CNC[C@@H](O)CC(=O)O)cc2Br)c1C [Example 128, (3S,3′S)-4,4′-((((((2,2′-dimethyl-[1,1′-biphenyl]-3,3′-diyl)bis(methylene))bis(oxy))bis(5-bromo-2-(2-(4-cyanopyridin-2-yl)ethoxy)pyridine-6,3-diyl))bis(methylene))bis(azanediyl))bis(3-hydroxybutanoic acid)] | 234 nM
7 | Cc1c(COc2nc(OCc3cnn(C)c3)c(CNC[C@@H](O)CC(=O)O)cc2Cl)cccc1-c1cccc(COc2nc(OCc3cnn(C)c3)c(CNC[C@@H](O)CC(=O)O)cc2Cl)c1C [Example 136, (3S,3′S)-4,4′-((((((2,2′-dimethyl-[1,1′-biphenyl]-3,3′-diyl)bis(methylene))bis(oxy))bis(5-chloro-2-((1-methyl-1H-pyrazol-4-yl)methoxy)pyridine-6,3-diyl))bis(methylene))bis(azanediyl))bis(3-hydroxybutanoic acid)] | 529 nM
8 | Cc1c(COc2nc(OCc3ccc(F)c(C#N)c3)c(CNC[C@@H](O)CC(=O)O)cc2Br)cccc1-c1cccc(COc2nc(OCc3ccc(F)c(C#N)c3)c(CNC[C@@H](O)CC(=O)O)cc2Br)c1C [Example 140, (3S,3′S)-4,4′-((((((2,2′-dimethyl-[1,1′-biphenyl]-3,3′-diyl)bis(methylene))bis(oxy))bis(5-bromo-2-((3-cyano-4-fluorobenzyl)oxy)pyridine-6,3-diyl))bis(methylene))bis(azanediyl))bis(3-hydroxybutanoic acid)] | 239 nM
9 | Cc1c(COc2nc(OCCc3cc[nH]n3)c(CNC[C@@H](O)CC(=O)O)cc2Br)cccc1-c1cccc(COc2nc(OCCc3cc[nH]n3)c(CNC[C@@H](O)CC(=O)O)cc2Br)c1C [Example 142, (3S,3′S)-4,4′-((((((2,2′-dimethyl-[1,1′-biphenyl]-3,3′-diyl)bis(methylene))bis(oxy))bis(2-(2-(1H-pyrazol-3-yl)ethoxy)-5-bromopyridine-6,3-diyl))bis(methylene))bis(azanediyl))bis(3-hydroxybutanoic acid)] | 235 nM
10 | Cc1c(COc2nc(OCc3cccc(C#N)n3)c(CNC[C@@H](O)CC(=O)O)cc2Br)cccc1-c1cccc(COc2nc(OCc3cccc(C#N)n3)c(CNC[C@@H](O)CC(=O)O)cc2Br)c1C [Example 152, (3S,3′S)-4,4′-((((((2,2′-dimethyl-[1,1′-biphenyl]-3,3′-diyl)bis(methylene))bis(oxy))bis(5-bromo-2-((6-cyanopyridin-2-yl)methoxy)pyridine-6,3-diyl))bis(methylene))bis(azanediyl))bis(3-hydroxybutanoic acid)] | 594 nM
11 | Cc1c(COc2nc(OCc3cccc(C#N)c3)c(CNC[C@@H](O)CC(=O)O)cc2Cl)cccc1-c1cccc(COc2nc(OCc3cccc(C#N)c3)c(CNC[C@@H](O)CC(=O)O)cc2Cl)c1C [Example 153, (3S,3′S)-4,4′-((((((2,2′-dimethyl-[1,1′-biphenyl]-3,3′-diyl)bis(methylene))bis(oxy))bis(5-chloro-2-((3-cyanobenzyl)oxy)pyridine-6,3-diyl))bis(methylene))bis(azanediyl))bis(3-hydroxybutanoic acid)] | 329 nM
12 | COc1nc(OCc2cccc(-c3cccc(COc4nc(OC)c(CNCC(=O)NS(C)(=O)=O)cc4Cl)c3C)c2C)c(Cl)cc1CNCC(=O)NS(C)(=O)=O [Example 168, 2,2′-((((((2,2′-Dimethyl-[1,1′-biphenyl]-3,3′-diyl)bis(methylene))bis(oxy))bis(5-chloro-2-methoxypyridine-6,3-diyl))bis(methylene))bis(azanediyl))bis(N-(methylsulfonyl)acetamide)] | 308 nM
13 | COc1nc(OCc2cccc(-c3cccc(COc4nc(OC)c(CNCc5nnn[nH]5)cc4Cl)c3C)c2C)c(Cl)cc1CNCc1nnn[nH]1 [Example 169, 1,1′-((((2,2′-dimethyl-[1,1′-biphenyl]-3,3′-diyl)bis(methylene))bis(oxy))bis(5-chloro-2-methoxypyridine-6,3-diyl))bis(N-((1H-tetrazol-5-yl)methyl)methanamine)] | 225 nM
14 | COc1nc(OCc2cccc(-c3cccc(COc4nc(OC)c(CNCc5nnc(C)o5)cc4Cl)c3C)c2C)c(Cl)cc1CNCc1nnc(C)o1 [Example 170, 1,1′-((((2,2′-dimethyl-[1,1′-biphenyl]-3,3′-diyl)bis(methylene))bis(oxy))bis(5-chloro-2-methoxypyridine-6,3-diyl))bis(N-((5-methyl-1,3,4-oxadiazol-2-yl)methyl)methanamine)] | ≥ 50000 nM
15 | COc1nc(OCc2cccc(-c3cccc(COc4nc(OC)c(CNCc5c[nH]nn5)cc4Cl)c3C)c2C)c(Cl)cc1CNCc1c[nH]nn1 [Example 171, 1,1′-((((2,2′-dimethyl-[1,1′-biphenyl]-3,3′-diyl)bis(methylene))bis(oxy))bis(5-chloro-2-methoxypyridine-6,3-diyl))bis(N-((1H-1,2,3-triazol-4-yl)methyl)methanamine)] | 7720 nM
